Experimental data from US20240246981A1, “[…] DERIVATIVES AS INHIBITORS OF […]-PEPTIDE CYCLOTRANSFERASE AND […]-PEPTIDE CYCLOTRANSFERASE LIKE PROTEIN” (Boehringer Ingelheim International GmbH, priority 2022, published 2024).
Like-named read-outs stand apart in the source and are kept apart here.

Assays:
[1] = Assay C: permeability in CACO-2 cells; assay type: in vitro ADME; settings: human, pH 7.2; for Papp A→B / Papp A→B at 2 h: Caco-2, apical to basolateral; for efflux ratio / efflux ratio at 2 h: Caco-2
Experimental: Compounds are dissolved in appropriate solvent (like DMSO, 1-20 mM stock solutions). […] The transport solution (TL) is applied to the apical or basolateral donor side for measuring A-B or B-A permeability (3 filter replicates), respectively. Samples are collected at the start and end of experiment from the donor and at various time intervals for up to 2 hours also from the receiver side for concentration measurement by HPLC-MS/MS or scintillation counting. Sampled receiver volumes are replaced with fresh receiver solution.

QPCT = QPCT (Homo sapiens (Human), UniProt Q16769); assay: Assay A: biochemical QPCT activity assay (MALDI-TOF MS); settings: compounds of the invention, Table 2; read-out: Inhibition of QPCT: IC50
Sequence of QPCT (Q16769 29-361): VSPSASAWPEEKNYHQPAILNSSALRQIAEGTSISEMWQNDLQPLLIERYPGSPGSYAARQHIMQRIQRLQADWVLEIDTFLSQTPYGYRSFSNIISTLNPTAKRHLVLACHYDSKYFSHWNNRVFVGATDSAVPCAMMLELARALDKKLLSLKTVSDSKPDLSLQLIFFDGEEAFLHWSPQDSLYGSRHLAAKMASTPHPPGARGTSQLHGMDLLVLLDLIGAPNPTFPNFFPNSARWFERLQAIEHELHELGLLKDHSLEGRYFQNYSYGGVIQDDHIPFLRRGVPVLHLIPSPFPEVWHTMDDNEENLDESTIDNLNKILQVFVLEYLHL
Experimental: (§1) QPCT or QPCTL dependent conversion of N-terminal glutamine to pyroglutamate of CD47 was monitored via MALDI-TOF MS. Test compounds were dissolved in 100% DMSO and serially diluted into clear 1,536-well microtiter plates. Enzymatic reactions were set up in assay buffer containing 20 mM Tris pH 7.5, 0.1 mM TCEP, 0.01% BSA, and 0.001% Tween20. […] The plates were incubated for 10 min in a humidified incubator at 24° C. Subsequently, 2.5 μL of CD47 peptide substrate surrogate (^19[…]^33) was added to each well (final concentration: 10 μM for QPCTL/20 μM for QPCT). The plates were mixed for 30 sec at 1,000 rpm and subsequently incubated for 40 min in a humidified incubator at 24° C. […] The plates were sealed with an adhesive foil, mixed for 30 s at 1,000 rpm and stored at room temperature until preparation of the MALDI target plates. […] QPCT or QPCTL activity was monitored by calculating the ratio between product and internal standard signals followed by normalization to high (100% activity) and low (0% activity) controls. Determination of compound potencies was obtained by fitting the dose-response data to a four-parameter logistical equation.

[2] = system: SIRPα signalling induced by Raji cells; assay: Assay B: SIRPα signalling assay using Raji cells; assay type: cell-based, human; settings: Homo sapiens
Experimental: Bioassay reagent 1 of the PathHunter Bioassay detection kit (DiscoverX 93-0001) was added to each well of the plate using a multichannel pipette followed by a 15 min incubation at room temperature. Afterwards bioassay reagent 2 was added followed by 60 min incubation at room temperature (incubation in the dark).
(§2) The analysis of the data was performed using the luminescence signal generated by beta-galactosidase in the PathHunter reporter cell line. The luminescence measurement was done using a Pherastar Multi-Mode Reader.

QPCTL = QPCTL (Homo sapiens (Human), UniProt Q9NXS2); assay: Assay A: biochemical QPCTL activity assay (MALDI-TOF MS); settings: compounds of the invention, Table 2; read-out: Inhibition of QPCTL: IC50
Sequence of QPCTL (Q9NXS2 whole entry): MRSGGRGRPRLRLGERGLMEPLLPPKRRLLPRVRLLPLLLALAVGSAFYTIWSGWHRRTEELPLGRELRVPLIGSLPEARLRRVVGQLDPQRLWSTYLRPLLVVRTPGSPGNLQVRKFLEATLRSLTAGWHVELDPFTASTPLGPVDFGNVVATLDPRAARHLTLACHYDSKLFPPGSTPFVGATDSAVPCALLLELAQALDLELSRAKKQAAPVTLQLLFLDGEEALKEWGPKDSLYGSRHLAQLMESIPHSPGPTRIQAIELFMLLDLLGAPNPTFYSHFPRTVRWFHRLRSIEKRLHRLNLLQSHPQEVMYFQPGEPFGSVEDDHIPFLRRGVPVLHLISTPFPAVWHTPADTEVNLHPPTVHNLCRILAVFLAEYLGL
Experimental: as §1

[3] = system: SIRPα signalling induced by A549 cells; assay: Assay B: SIRPα signalling assay using A549 cells; assay type: cell-based, human; settings: Homo sapiens
Experimental: Two cell types are independently used: the Raji cell line (lymphoblastlike human cell line derived from B lymphocytes from a Burkitt's lymphoma patient in 1963) and A549 cells (adenocarcinomic human alveolar basal epithelial cells).
Test compounds were dissolved in 100% DMSO and serially diluted into a white 384-well microtiter cell culture plate (PerkinElmer #60076780 in case of Raji assay; PDL-coated plates Greiner #781945 in case of A549 assay). 5000 Raji cells (ATCC #CC86) or 5000 A549 cells (ATCC #CCL-185) in Assay Complete Cell Plating reagent 30 (DiscoverX 93-0563R30B) were added per well. The assay plate was incubated for 48 h at 37° C., 95% humidity and 5% CO2. 15000 reporter cells (Jurkat PathHunter SIRPα V1, DiscoverX #93-1135C19) were added to each well, and the plate was incubated for 5 h at 37° C., 95% humidity and 5% CO2. Bioassay reagent 1 of the PathHunter Bioassay detection kit (DiscoverX 93-0001) was added to each well of the plate using a multichannel pipette followed by a 15 min incubation at room temperature. Afterwards bioassay reagent 2 was added followed by 60 min incubation at room temperature (incubation in the dark).
as §2, with “Reader. Dose-response curves & IC50 data were calculated with 4-parameter sigmoidal dose response formula.” for “Reader.”

[4] = compounds of the invention, Table 7
[5] = compounds of the invention, Table 4, read-out: Inhibition of SIRα signalling induced by Raji cells: IC50
[6] = compounds of the invention, Table 4, read-out: Inhibition of SIRα signalling induced by A549 cells: IC50

| Papp A→B [1, 4] [×10⁻⁶ cm/s] | efflux ratio [1, 4] | IC50 (QPCT) [nM] | IC50 [2, 5] [nM] | IC50 (QPCTL) [nM] | IC50 [3, 6] [nM] | Papp A→B at 2 h [1, 4] [×10⁻⁶ cm/s] | efflux ratio at 2 h [1, 4] | Papp A→B at 2 h ([1]; prior art compounds, Table 8) [×10⁻⁶ cm/s] | IC50 ([2]; prior art compounds, Table 5, read-out: Inhibition of SIRPα signalling induced by Raji cells: IC50) [nM] | IC50 ([3]; prior art compounds, Table 5, read-out: Inhibition of SIRPα signalling induced by A549 cells: IC50) [nM] | SMILES |
| --- | --- | --- | --- | --- | --- | --- | --- | --- | --- | --- | --- |
| 5.5 | 12.4 | 12 | 250 | 2 | 282 | – | – | – | – | – | Cn1cnnc1C1CCN(c2c(C#N)cccc2-c2cnc3nc(-c4cccc(Cl)c4)ccn23)CC1 [compound 28] |
| 1 | 34 | 56 | 368 | 14 | 177 | – | – | – | – | – | Cn1cnnc1C1CCN(c2c(C#N)cccc2-c2cnc3c(c2)NCCO3)CC1 [compound 24] |
| 1.1 | 21.8 | 22 | 446 | 7 | 674 | – | – | – | – | – | COc1cc(-c2cccc(C#N)c2N2CCC(c3nncn3C)CC2)cnn1 [compound 48] |
| 40 | 0.7 | 3 | 16 | 2 | 22 | – | – | – | – | – | Cn1cnnc1C1(F)CCN(c2c(C#N)cccc2-c2cnn3nc(-c4cccc(Cl)c4)ccc23)CC1 [compound 79] |
| 3.3 | 14.8 | 8 | 261 | 4 | 122 | – | – | – | – | – | Cn1cnnc1C1(F)CCN(c2c(C#N)cccc2-c2cnc3nc(C(F)(F)F)nn3c2)CC1 [compound 73] |
| – | – | – | 52 | – | 25 | 22 | 3.3 | – | – | – | Cn1cnnc1C1CCN(c2c(C#N)cccc2-c2cnc(F)c(OC3CCC3)c2)CC1 [Example 34] |
| 3.9 | 11 | 11 | 442 | 5 | 244 | – | – | – | – | – | Cn1cnnc1C1CCN(c2c(C#N)cccc2-c2cnn3ncccc23)CC1 [compound 57] |
| 12 | 4 | 1 | 7 | 1 | 7 | – | – | – | – | – | Cn1cnnc1C1(F)CCN(c2c(C#N)cccc2-c2cnc3nn(C(F)(F)F)cc3c2)CC1 [compound 75] |
| 11 | 1.5 | 18 | 109 | 4 | 121 | – | – | – | – | – | COc1cc(F)ncc1-c1cccc(C#N)c1N1CCC(c2nncn2C)CC1 [compound 44] |
| 30 | 1.4 | 2 | 100 | 3 | 14 | – | – | – | – | – | Cn1cnnc1C1(C)CCN(c2c(C#N)cccc2-c2ccc(F)nc2)CC1 [compound 66] |
| 0.4 | 34.1 | 8 | 746 | 2 | 619 | – | – | – | – | – | Cn1cnnc1C1(F)CCN(c2c(C#N)cccc2-c2cnc(=O)n(Cc3ccccc3)c2)CC1 [compound 59] |
| – | – | 38 | 309 | 11 | – | – | – | – | – | – | Cn1cnnc1C1CCN(c2c(C#N)cccc2-c2cncc(CO)c2)CC1 [compound 9] |
| 2.7 | 23.7 | 57 | 421 | 12 | 243 | – | – | – | – | – | Cn1cnnc1C1CCN(c2c(C#N)cccc2-c2cnc3c(c2)CCCO3)CC1 [compound 12] |
| 6.5 | 7.4 | 42 | 456 | 34 | 440 | – | – | – | – | – | Cn1cnnc1C1(F)CCN(c2c(C#N)cccc2-c2cncc3cn(Cc4ccccc4)nc23)CC1 [compound 78] |
| 39 | 2.2 | 71 | 244 | 9 | 135 | – | – | – | – | – | Cn1cnnc1C1CCN(c2c(C#N)cccc2-c2cnc(F)c(OC(F)(F)F)c2)CC1 [compound 31] |
| – | – | – | 325 | – | 113 | 23 | 2 | – | – | – | Cn1cnnc1C1CCN(c2c(C#N)cccc2-c2cnc(F)c(OC(F)F)c2)CC1 [Example 37] |
| 0.5 | 56.9 | – | 11 | – | 10 | – | – | – | – | – | Cn1cnnc1C1(F)CCN(c2c(C#N)cccc2-c2cnc3nc(C(C)(C)C)[nH]c3c2)CC1 [compound 69] |
| – | – | – | – | – | – | – | – | 0.7 | > 10000 | > 10000 | Cn1cnnc1C1CCN(S(=O)(=O)c2cccc(Nc3ccc(F)nc3)c2)CC1 [compound 21, reference compound] |
| – | – | – | 38 | – | 44 | 1.4 | 40 | – | – | – | Cn1cnnc1C1(F)CCN(c2c(C#N)cccc2-c2cnc3nn(CC(F)(F)F)cc3c2)CC1 [Example 55] |
| – | – | – | 1070 | – | 342 | 10.1 | 7.1 | – | – | – | Cn1cnnc1C1CCN(c2c(C#N)cccc2-c2cncc(OC(F)F)c2)CC1 [compound 23, reference compound] |
| 4.4 | 13.4 | 100 | 483 | 15 | – | – | – | – | – | – | COC(=O)c1cncc(-c2cccc(C#N)c2N2CCC(c3nncn3C)CC2)c1 [compound 27] |
| – | – | – | 1320 | – | 530 | 33 | 2.8 | – | – | – | Cn1cnnc1C1CCN(c2c(C#N)cccc2-c2cncc(-c3ccccc3)c2)CC1 [compound 21, reference compound] |
| – | – | – | 493 | – | 249 | < 0.3 | > 4.3 | – | – | – | Cn1cnnc1C1(F)CCN(c2c(C#N)cccc2-c2cnc(=O)n(C)c2)CC1 [Example 58] |
| 0.5 | 100 | 1 | 17 | – | 16 | – | – | – | – | – | Cn1cnnc1C1(F)CCN(c2c(C#N)cccc2-c2cnc3nn(CC(F)F)cc3c2)CC1 [compound 60] |
| – | – | – | 1040 | – | – | 9.8 | 4.9 | – | – | – | Cn1cnnc1C1(C)CCN(c2c(C#N)cccc2-c2cccnc2)CC1 [Example 65] |
| 0.1 | 50.9 | 21 | 761 | 3 | – | – | – | – | – | – | Cn1cnnc1C1CCN(c2c(C#N)cccc2-c2cncc(C(N)=O)c2)CC1 [compound 14] |
| 0.1 | 11.1 | 1 | 851 | – | 205 | – | – | – | – | – | Cn1cnnc1C1(F)CCN(c2c(C#N)cccc2-c2cnc(O)nc2)CC1 [compound 54] |
| – | – | – | 372 | – | 98 | 20 | 1.9 | – | – | – | Cn1cnnc1C1CCN(c2c(C#N)cccc2-c2cnc(F)c(Oc3ccccc3)c2)CC1 [Example 38] |

| SMILES | Papp A→B [1, 4] [×10⁻⁶ cm/s] | efflux ratio [1, 4] | IC50 (QPCT) [nM] | IC50 [2, 5] [nM] | IC50 (QPCTL) [nM] | IC50 [3, 6] [nM] | Papp A→B at 2 h [1, 4] [×10⁻⁶ cm/s] | efflux ratio at 2 h [1, 4] | Papp A→B at 2 h ([1]; prior art compounds, Table 8) [×10⁻⁶ cm/s] | IC50 ([2]; prior art compounds, Table 5, read-out: Inhibition of SIRPα signalling induced by Raji cells: IC50) [nM] | IC50 ([3]; prior art compounds, Table 5, read-out: Inhibition of SIRPα signalling induced by A549 cells: IC50) [nM] |
| --- | --- | --- | --- | --- | --- | --- | --- | --- | --- | --- | --- |
| Cn1cnnc1C1CCN(c2c(C#N)cccc2-c2cnc3nn(C)c(C(F)(F)F)c3c2)CC1 [Example 41] | – | – | – | 88 | – | 97 | 2.9 | – | – | – | – |
| Cn1cnnc1C1CCN(c2c(C#N)cccc2-c2ccc(F)nc2)CC1 [Example 1] | – | – | – | – | – | 9 | 28 | – | – | – | – |
